The source of these data is patent US6031004A, “Salts of metformin and method” (Bristol-Myers Squibb Company, priority 1999, dated 2000).

Counter-ions that a name gives are not always drawn. Like-named read-outs stand apart in the source and are kept apart here.

Series [1] is described as follows: compaction susceptibility (tendency of the salt to compact under its own weight). The series is classed as physicochemical.
Series [2] is described as follows: hygroscopicity / moisture uptake at 95% relative humidity by Dynamic Vapour Sorption (DVS). The series is classed as physicochemical. Particulars: for % moisture uptake, 30 min / % moisture uptake, 70 min / % moisture uptake, 3 hours / % moisture uptake, 6 hours: DVS; for moisture uptake equilibrium reached or not: at the last time point (6 hours; 30 min for succinate). On the procedure:
The following experiment was carried out to determine moisture sorption/desorption profiles of metformin (2:1) fumarate salt and metformin (2:1) succinate salt compared to the moisture uptake properties of metformin hydrochloride salt.
The hygroscopicity of metformin salts was assessed by Dynamic Vapour Sorption (DVS), a means of rapidly assessing sample moisture uptake properties. […] […] The weight increase of sample at each condition is recorded until a defined minimal rate of mass change is reached or a specified time period for equilibrium exceeded.

Setting [3] is: 95% relative humidity/25° C., hydrochloride.

On to `CN(C)C(=N)N=C(N)N` [metformin (2:1) fumarate], for which, in series [1], the compaction susceptibility entry is “low compaction susceptibility”. For the same compound, in series [2] (95% relative humidity at 25° C.), the “moisture content after 6 hours (summary)” value worked out at 6.6%. In series [2] (95% relative humidity/25° C.), the “% moisture uptake, 30 min” value worked out at 1.0%; the “% moisture uptake, 70 min” value is 2.0%; the “% moisture uptake, 3 hours” value turned out to be 4.1%; the “hygroscopicity, moisture uptake at 6 hours” value (from here on “hygroscopicity … at 6 hours”) is “less than 7 % moisture uptake”. In addition, the “% moisture uptake, 6 hours” value in series [2] (95% relative humidity/25° C.) turned out to be 6.6%.

In the case of `CN(C)C(=N)NC(=N)N` [metformin (2:1) succinate], in series [1], the compaction susceptibility result was “low compaction susceptibility”. The “equilibrium moisture content after 30 minutes (summary)” value in series [2] (95% relative humidity at 25° C., 30 minutes) is 0.27%. Besides, in series [2] (95% relative humidity/25° C.), the “% moisture uptake, 30 min” value was 0.27%; the “hygroscopicity … at 6 hours” value is on record as “less than 7 % moisture uptake”; the “moisture uptake equilibrium reached or not” value was “reach equilibrium”. Further, in series [2] (95% relative humidity/25° C., 30 minutes), the “hygroscopicity, moisture uptake at 30 minutes” value is on record as “less than 1 % moisture uptake”.

As for `CN(C)C(=N)N=C(N)N` [metformin hydrochloride, reference compound], the compaction susceptibility entry in series [1] (hydrochloride) is reported as “high compaction susceptibility”. In addition, in series [2] (95% relative humidity at 25° C., hydrochloride), the “moisture content after 6 hours (summary)” value turned out to be 20%. In series [2] (setting [3]), the “% moisture uptake, 30 min” value amounted to 1.2%; the “% moisture uptake, 70 min” value stood at 3.3%; the “% moisture uptake, 3 hours” value was 10.0%; the “% moisture uptake, 6 hours” value worked out at 20.1%. In series [2] (setting [3]), the “hygroscopicity … at 6 hours” value is “greater than 20 % moisture uptake”. Moreover, the “moisture uptake equilibrium reached or not” value in series [2] (95% relative humidity/25° C.) is on record as “did not reach equilibrium”. In series [2] (vs metformin (2:1) fumarate and succinate salts, 95% relative humidity), the “moisture absorbed compared to the metformin (2:1) fumarate and succinate salts” value is given as “substantially greater amounts of moisture”.
